Measurements: patent US20210015793A1, “COMPOUNDS FOR TREATING CNS- AND NEURODEGENERATIVE DISEASES” (ETH ZURICH, priority 2018, published 2021)

Columns and labels:
[1] = Serum concentration by HPLC in dogs after oral dosing; format: in vivo, dog; conditions: for steady-state serum concentrations of Compound-1 and Compound-1F compared: 28 days once daily oral dosing, 24 h after the last dose; for oral bioavailability: oral treatment; for dog dose roughly equivalent to 8 mg/kg/day in mice (by steady-state serum concentration): mice given compound in drinking water, dogs 28 days once daily oral dosing
Protocol: (§1) Dog serum concentrations of Compound-1, Compound-1F and Compound-4 were determined with serum isolated from the blood of German shepherd dogs (age: 8-9 months) taken at different time points (2 h, 4 h, 6 h, 8, 10 h, 24 h) after oral drug intake. The steady-state serum concentrations of Compound-1, Compound-1F and Compound-4 were determined in mice with blood isolated at the end of the study by cardiac puncture. Serum proteins were removed by acetonitrile precipitation, and compounds were extracted by chloroform before separation on an HPLC-C18 column (Poroshell 120 EC-C18, Agilent) with an HPLC system (Agilent 1100 Series) and detection at OD 280 nm, for Compound-1 and Compound-1F. Detection of Compound-4 was performed at OD 310 nm. The same extraction method was also used to determine Compound-1F in the serum of healthy human research participants. Dog hematology and biochemical parameters were determined by the Center of Applied Analytical and Veterinary Studies, Cairo, Egypt. ECG and blood pressure were measured by Dr. Mohamed Elsaed, Electrocardiography Unit, Faculty of Veterinary Medicine, Cairo University. The study was approved by the ethical committee of the Center of Applied and Veterinary Studies, Cairo, Egypt. Clinical laboratory parameters of human research participants were determined by the Rabaa El Adaweya Medical Central Hospital, Cairo, Egypt.

male B6 mice = experiment: Aging-induced deterioration of male sperm quality in B6 mice; format: in vivo, mouse; conditions: 18-month-old male B6 mice, 15 months treatment; for epididymal sperm count / sperm vitality (eosin-nigrosin staining) / total sperm motility: 8 mg/kg/d in drinking water
Protocol: Sperm count, and motility were determined by microscopic semen analysis of male B6 mice at an age of 3 months and 18 months similarly as described (Komori et al., Reprod. Med. Biol. 5, 195-200, 2006). Sperm cells were isolated from male B6 mice from the epididymis as described (Esposito et al., Proc. Nat. Acad. Sci. U.S.A. 101, 2993-2998, 2004). Sperm concentration was determined with a Neubauer hemocytometer. Percentage of sperm motility was determined with a 10 microl sample loaded onto a clean slide glass and covered with a coverslip. Sperm motility was evaluated under positive phase-contrast microscopy at a total magnification of ×400, and graded according to the WHO criteria (Komori et al., Reprod. Med. Biol. 5, 195-200, 2006), i.e. percentage of motile sperm cells was counted, and the percentage of progressive and not progressive sperm motility was determined. At least 300 spermatozoa were evaluated. Spermatozoa viability was determined by eosin-nigrosine staining technique. A drop of spermatozoa suspension in PBS was mixed with one drop of aqueous eosin Y solution (1%), and incubated for 15 s. Thereafter, two drops of 10% aqueous nigrosine solution were added and mixed. An aliquot of this mixture was transferred to a glass slide, a thin smear was made, and air dried. Stained spermatozoa were examined under a light microscope, and the percentage of live sperm cells was determined. Live sperm cells appear white whereas dead sperm cells are coloured pink. Treatment of male B6 mice with Compound-1 and Compound-1F (8 mg/kg/d in drinking water) was started at an age of 3 months and continued until the end of the observation period at an age of 18 months.

[2] = 28-day repeated oral dosing safety in German shepherd dogs; format: in vivo, dog; conditions: for sedation / ECG: P-R interval, QRS interval and Q-T interval before vs after treatment / blood levels of AST, ALT, ALP, BUN and fasting blood glucose / hematologic parameters (Hb, HCT, RBCs, MCV, MCHC) before vs after treatment / total number of white blood cells / systolic and diastolic blood pressure / heart rate / tolerability: dogs; for ECG: P-R interval, QRS interval and Q-T interval before vs after treatment / blood levels of AST, ALT, ALP, BUN and fasting blood glucose / hematologic parameters (Hb, HCT, RBCs, MCV, MCHC) before vs after treatment / total number of white blood cells: once daily 60, 120 and 200 mg for 28 days; for systolic and diastolic blood pressure: once daily 60, 120 and 200 mg/d for 28 days; for heart rate: repeated oral dosing for 28 days; for tolerability: therapeutic dose range; for body weight: male and female dogs, once daily 20, 60, 120 and 200 mg/d for 28 days
Protocol: as §1

[3] = dogs, oral gavage, single dose of 60 mg

## O=C(C1=C(O)C(c2ccccc2)N(c2ccc3c(c2)OCO3)C1=O)C1CC1 (stereo not shown) [Compound-1, 1-(1,3-benzodioxol-5-yl)-4-(cyclopropane-carbonyl)-3-hydroxy-2-phenyl-2H-pyrrol-5-one]
[1]; dogs
  steady-state serum concentrations of Compound-1 and Compound-1F compared: comparable
  oral bioavailability: good oral bioavailability
[1]; dogs, 28 days repeated once daily dosing, 20, 60, 200 mg/day
  dose dependence of peak serum concentration: dose-dependent increase in the peak serum concentration
[1]; dogs, day 28 of repeated once daily dosing, 20, 60 and 200 mg/day
  time to peak serum concentration: 4 h
[1]; [3]
  peak serum concentration: 2 µg/mL
  time to peak serum concentration: 4 h
[1]; dogs, oral gavage, single dose of 200 mg
  time to peak serum concentration: 6 h
[1]
  dog dose roughly equivalent to 8 mg/kg/day in mice (by steady-state serum concentration): ~0.7 mg/kg day
Male B6 mice
  decrease in progressive sperm motility: largely prevented
  epididymal sperm count: retarded the aging-induced decrease in epididymal sperm count
  sperm vitality (eosin-nigrosin staining): maintained sperm vitality
  total sperm motility: improved total sperm motility
[2]; daily dose of 120 mg/d
  sedation: no sedation
[2]; highest dose of 200 mg
  sedation: showed sedation
[2]
  ECG: P-R interval, QRS interval and Q-T interval before vs after treatment: not significantly different
  blood levels of AST, ALT, ALP, BUN and fasting blood glucose: did not significantly alter
  hematologic parameters (Hb, HCT, RBCs, MCV, MCHC) before vs after treatment: not significantly different
  total number of white blood cells: not altered
  systolic and diastolic blood pressure: did not significantly change systolic and diastolic blood pressure
  heart rate: did not significantly affect heart rate
  tolerability: excellent tolerability
  body weight: did not significantly change body weight

## O=C(C1=C(O)C(c2ccc(F)cc2)N(c2ccc3c(c2)OCO3)C1=O)C1CC1 (stereo not shown) [Compound-1F, 1-(1,3-Benzodioxol-5-yl)-4-(cyclopropanecarbonyl)-2-(4-fluorophenyl)-3-hydroxy-2H-pyrrol-5-one]
[1]; dogs
  steady-state serum concentrations of Compound-1 and Compound-1F compared: comparable
  oral bioavailability: good oral bioavailability
[1]; dogs, oral
  pharmacokinetic profile compared to Compound-1: slower on-rate
[1]
  dog dose roughly equivalent to 8 mg/kg/day in mice (by steady-state serum concentration): ~0.7 mg/kg day
Male B6 mice
  decrease in progressive sperm motility: largely prevented
  epididymal sperm count: retarded the aging-induced decrease in epididymal sperm count
  sperm vitality (eosin-nigrosin staining): maintained sperm vitality
  total sperm motility: improved total sperm motility
[2]; daily dose of 120 mg/d
  sedation: no sedation
[2]; highest dose of 200 mg
  sedation: showed sedation
[2]
  ECG: P-R interval, QRS interval and Q-T interval before vs after treatment: not significantly different
  blood levels of AST, ALT, ALP, BUN and fasting blood glucose: did not significantly alter
  hematologic parameters (Hb, HCT, RBCs, MCV, MCHC) before vs after treatment: not significantly different
  total number of white blood cells: not altered
  systolic and diastolic blood pressure: did not significantly change systolic and diastolic blood pressure
  heart rate: did not significantly affect heart rate
  tolerability: excellent tolerability
  body weight: did not significantly change body weight
